# Results reported in patent US20230390297A1, “USE OF NUCLEOTIDE SYNTHESIS INHIBITORS FOR TARGETED THERAPY IN MLL3/4 COMPASS MUTANT CANCER” (priority 2022, published 2023).
# What was measured:
# [1] = test system: BBN induced bladder cancer, MLL4 mutant tumors; assay: BBN induced bladder cancer mouse model; assay type: in vivo, C57BL/6J male mice; conditions: 15 mg/kg intraperitoneal twice a week for 12 weeks; Fisher's exact test, p=0.037
# Description: N-butyl-N-(4-hydroxybutyl)-nitrosamine (BBN) is a carcinogen, that mimics the tobacco use in human. When administered to C57/B6 male mice in drinking water for at least 20 weeks, causes muscle invasive bladder tumors (MIBC) (1). Besides, 70% of Kmt2d/MLL4 is mutated in BBN mouse model, mimicking high MLL4 mutation rate (and low UTX mutation rate) found in […] (1, 2). Thus, we believe that this is a valuable system where we could examine the effect of lometrexol in bladder cancer based on the MLL4 mutation stratification.
# Experiment design: Thirty 7-week-old C57BL/6J male mice were used in our study to induce bladder cancer by feeding them with 0.1% BBN containing water for 6 weeks. The mice were then randomized into two groups: DMSO (n=15) or lometrexol treatment (n=15) and were given intraperitoneal injections of the respective treatments twice a week at a dose of 15 mg/kg for 12 weeks. At the end of the treatment period, the bladder tissues of the mice were harvested for H&E staining and RNA isolation. Each mouse's tumor grade was assessed, and RNA samples were analyzed for mutations in the kmt2d/MLL4 gene through mRNA-seq. Finally, we compared the MLL4 genotype and treatment to the tumor stage to assess the effectiveness of the treatment.
# [2] = test system: RKO, HCT116, DLD1, Caco2, HT55 and SW1417 cells; assay: Western blot of cell cycle and apoptosis markers in colorectal cancer cells; assay type: cell-based, human; conditions: 1 μM LTX, 24 hours; MLL4 mutant vs WT cells
# Experimental: FIG. 5. MLL4 mutant colorectal cancer cells are selectively sensitive to lometrexol treatment. (A) 100 μL of 0.5×10^5 cells/mL cells were seeded in 96-well plates one day before treatment. Cells were treated with 0-30 μM lometrexol (LTX) with 3× fold dilution for 72 hours. CellTiter-Glo® luminescent cell viability assay was performed to determine the percentage of inhibition under these conditions. The line plot compares sensitivity difference of all cell lines tested. (B) RKO, HCT116, DLD1, Caco2, HT55 and SW1417 cells were treated with DMSO or 1 μM LTX for 24 hours and whole cell lysates were used for western blot against cell cycle (H3 Ser10-p, CDT1, CyclinB 1, Geminin, CyclinEl, CyclinA2, p-cdc2) and apoptosis (PARP, Caspase3) markers using Hsp90 and I3-tubulin as loading control. […] (F) A subset of representative terms from the full cluster were selected and converted into a network layout. Each term is represented by a circle node, where its size is proportional to the number of input genes fall under that term, and its color represent its cluster identity. Terms with a similarity score>0.3 are linked by an edge (the thickness of the edge represents the similarity score). The network is visualized with Cytoscape with “force-directed” layout and with edge bundled for clarity. One term from each cluster is selected to have its term description shown as label. […]
compound,measurement,setting,value
"Nc1nc2c(c(=O)[nH]1)C[C@@H](CCc1ccc(C(=O)N[C@@H](CCC(=O)O)C(=O)O)cc1)CN2 [lometrexol, (2S)-2-[[4-[2-[(6R)-2-amino-4-oxo-5,6,7,8-tetrahydro-3H-pyrido[2,3-d]pyrimidin-6-yl]ethyl]benzoyl]amino]pentanedioic acid]",tumor stage of mice with MLL4 mutant tumors compared with other groups,[1],significant lowered tumor stages
same,"cell cycle markers H3 Ser10-p, CDT1, CyclinB1 (western blot)",[2],"significant downregulation of histone H3 Serine10 phosphorylation (H3 Ser10-p), CDT1 and CyclinB1 was observed only in MLL4 mutant cells but not WT cells"
